Reference: the supplement of paper PMC6411743

Assays:
guanosine triphosphate = compound: Nc1nc2c(ncn2[C@@H]2O[C@H](COP(=O)(O)OP(=O)(O)OP(=O)(O)O)[C@@H](O)[C@H]2O)c(=O)[nH]1 [guanosine triphosphate]; test: pEC50 of GTP-induced change in protein thermal stability (2D-TPP)
Method: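 2D thermal proteome profiling in Jurkat crude lysate. Lysate was treated 10 min at room temperature with Na-GTP (0, 0.001, 0.01, 0.1, 0.5 mM), heated to 12 temperatures (42-63.9 °C) for 3 min, and soluble protein was quantified by TMT10 LC-MS/MS. pEC50 is the median over replicates of dose-response fits (FDR-controlled hits).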

adenosine triphosphate = compound: Nc1ncnc2c1ncn2[C@@H]1O[C@H](COP(=O)(O)OP(=O)(O)OP(=O)(O)O)[C@@H](O)[C@H]1O [adenosine triphosphate]; test: pEC50 of ATP-induced change in protein thermal stability (2D-TPP)
In short: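 Soluble protein was quantified by TMT LC-MS/MS after ultracentrifugation of Jurkat crude lysate that had been dosed at five concentrations including vehicle (10 min, room temperature), heated at 12 temperatures of 42–63.9 °C for 3 min, and incubated with NP40 and benzonase at 4 °C for 60 min. Fold changes against vehicle at each temperature were median-normalised, and pEC50 was derived from per-replicate dose-response fits over adjacent temperature pairs. Hits were called with permutation-based false discovery rate control in three independent experiments.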
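For pEC50 of ATP-induced change in protein thermal stability (2D-TPP) in this document: lysate dosed with Na-ATP at 0 0.005 0.05 0.5 and 2 mM.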

Chain of UniProt Q6XQN6 (Q6XQN6 whole entry): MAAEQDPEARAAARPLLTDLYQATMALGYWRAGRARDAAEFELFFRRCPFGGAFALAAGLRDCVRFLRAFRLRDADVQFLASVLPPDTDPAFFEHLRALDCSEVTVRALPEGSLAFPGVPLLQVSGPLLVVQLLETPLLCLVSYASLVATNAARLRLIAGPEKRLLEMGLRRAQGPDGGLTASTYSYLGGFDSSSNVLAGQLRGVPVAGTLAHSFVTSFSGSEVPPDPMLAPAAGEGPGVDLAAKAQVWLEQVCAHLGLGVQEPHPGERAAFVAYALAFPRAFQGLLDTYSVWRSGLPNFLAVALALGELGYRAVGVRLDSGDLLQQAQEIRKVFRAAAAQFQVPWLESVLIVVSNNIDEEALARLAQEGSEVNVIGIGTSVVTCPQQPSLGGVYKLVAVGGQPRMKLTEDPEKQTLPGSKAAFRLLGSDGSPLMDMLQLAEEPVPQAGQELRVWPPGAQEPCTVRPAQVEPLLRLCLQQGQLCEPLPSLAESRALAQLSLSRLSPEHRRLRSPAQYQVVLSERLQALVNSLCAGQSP
Chain of UniProt P62333 (P62333 whole entry): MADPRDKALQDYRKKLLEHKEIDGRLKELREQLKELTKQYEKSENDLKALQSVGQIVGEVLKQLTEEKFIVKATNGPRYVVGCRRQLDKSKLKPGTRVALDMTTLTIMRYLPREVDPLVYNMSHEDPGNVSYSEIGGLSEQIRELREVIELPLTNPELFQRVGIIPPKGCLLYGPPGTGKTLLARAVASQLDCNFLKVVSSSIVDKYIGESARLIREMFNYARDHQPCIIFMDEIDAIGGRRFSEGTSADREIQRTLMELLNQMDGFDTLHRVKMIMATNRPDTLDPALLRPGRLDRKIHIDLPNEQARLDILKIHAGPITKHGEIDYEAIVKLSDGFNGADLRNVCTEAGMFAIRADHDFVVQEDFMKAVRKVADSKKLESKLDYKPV
Chain of UniProt P61086 (P61086 whole entry): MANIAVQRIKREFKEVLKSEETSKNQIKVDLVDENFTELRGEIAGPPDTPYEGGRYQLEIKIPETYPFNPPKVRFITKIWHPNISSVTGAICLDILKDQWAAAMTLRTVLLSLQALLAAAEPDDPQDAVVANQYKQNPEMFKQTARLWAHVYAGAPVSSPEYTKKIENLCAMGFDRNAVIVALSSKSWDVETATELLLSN
Chain of UniProt Q9UIJ7 (Q9UIJ7 whole entry): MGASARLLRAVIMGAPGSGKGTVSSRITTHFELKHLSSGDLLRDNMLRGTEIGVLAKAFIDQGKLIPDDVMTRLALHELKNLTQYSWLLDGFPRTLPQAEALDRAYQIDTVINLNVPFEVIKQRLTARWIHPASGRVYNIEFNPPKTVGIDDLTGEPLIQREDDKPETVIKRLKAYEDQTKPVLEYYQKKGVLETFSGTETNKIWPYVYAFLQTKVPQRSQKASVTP
Chain of UniProt Q712K3 (Q712K3 whole entry): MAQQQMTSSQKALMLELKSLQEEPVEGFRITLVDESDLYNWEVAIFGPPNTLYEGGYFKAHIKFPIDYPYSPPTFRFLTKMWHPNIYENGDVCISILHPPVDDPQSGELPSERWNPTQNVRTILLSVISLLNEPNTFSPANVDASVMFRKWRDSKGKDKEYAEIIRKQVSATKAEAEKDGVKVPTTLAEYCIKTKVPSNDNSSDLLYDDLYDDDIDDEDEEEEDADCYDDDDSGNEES
Chain of UniProt Q8WVX9 (Q8WVX9 whole entry): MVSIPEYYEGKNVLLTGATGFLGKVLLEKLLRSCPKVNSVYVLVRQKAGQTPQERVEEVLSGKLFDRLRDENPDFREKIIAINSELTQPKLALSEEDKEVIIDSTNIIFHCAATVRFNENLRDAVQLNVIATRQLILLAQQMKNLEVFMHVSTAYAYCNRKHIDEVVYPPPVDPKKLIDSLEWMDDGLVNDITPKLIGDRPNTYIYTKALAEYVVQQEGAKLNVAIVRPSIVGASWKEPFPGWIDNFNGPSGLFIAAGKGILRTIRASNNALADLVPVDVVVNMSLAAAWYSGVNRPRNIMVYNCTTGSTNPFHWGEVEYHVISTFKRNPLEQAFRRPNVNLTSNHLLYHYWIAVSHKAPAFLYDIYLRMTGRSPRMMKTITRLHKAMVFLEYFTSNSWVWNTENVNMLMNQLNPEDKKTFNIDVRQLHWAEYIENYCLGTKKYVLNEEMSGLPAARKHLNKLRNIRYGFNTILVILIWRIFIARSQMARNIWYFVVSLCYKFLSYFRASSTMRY
Chain of UniProt P36776 (P36776 whole entry): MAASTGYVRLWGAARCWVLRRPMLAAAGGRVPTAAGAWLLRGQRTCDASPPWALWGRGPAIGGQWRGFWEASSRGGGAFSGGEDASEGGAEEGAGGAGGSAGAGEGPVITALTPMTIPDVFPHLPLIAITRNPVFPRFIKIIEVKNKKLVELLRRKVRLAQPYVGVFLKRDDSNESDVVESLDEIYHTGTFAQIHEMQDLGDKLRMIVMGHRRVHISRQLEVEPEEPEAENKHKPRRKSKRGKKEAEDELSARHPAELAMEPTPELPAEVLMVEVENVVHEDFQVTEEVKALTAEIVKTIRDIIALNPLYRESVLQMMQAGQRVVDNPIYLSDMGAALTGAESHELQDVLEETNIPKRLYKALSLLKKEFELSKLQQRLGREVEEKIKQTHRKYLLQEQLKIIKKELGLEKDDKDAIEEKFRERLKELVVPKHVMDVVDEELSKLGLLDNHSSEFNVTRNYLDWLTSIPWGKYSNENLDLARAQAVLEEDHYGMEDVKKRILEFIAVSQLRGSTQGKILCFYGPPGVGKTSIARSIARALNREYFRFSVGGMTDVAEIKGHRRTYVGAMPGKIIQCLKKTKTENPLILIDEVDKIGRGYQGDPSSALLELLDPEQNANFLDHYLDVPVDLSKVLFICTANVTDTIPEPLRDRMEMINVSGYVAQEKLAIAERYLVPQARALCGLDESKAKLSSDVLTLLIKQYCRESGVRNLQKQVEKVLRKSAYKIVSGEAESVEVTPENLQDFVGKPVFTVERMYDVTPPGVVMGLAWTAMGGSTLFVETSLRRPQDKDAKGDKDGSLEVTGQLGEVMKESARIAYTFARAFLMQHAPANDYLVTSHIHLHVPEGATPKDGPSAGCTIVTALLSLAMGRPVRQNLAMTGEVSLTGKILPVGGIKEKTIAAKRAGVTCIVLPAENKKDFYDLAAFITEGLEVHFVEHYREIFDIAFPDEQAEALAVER
Chain of UniProt Q8IWD4 (Q8IWD4 whole entry): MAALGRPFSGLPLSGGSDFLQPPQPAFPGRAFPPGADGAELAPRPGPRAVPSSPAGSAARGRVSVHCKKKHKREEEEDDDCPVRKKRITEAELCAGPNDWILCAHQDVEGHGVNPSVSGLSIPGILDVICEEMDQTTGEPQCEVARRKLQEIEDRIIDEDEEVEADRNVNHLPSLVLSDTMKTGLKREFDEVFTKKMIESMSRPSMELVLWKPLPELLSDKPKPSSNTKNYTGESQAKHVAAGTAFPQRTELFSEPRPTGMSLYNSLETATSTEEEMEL
Chain of UniProt Q8NE71 (Q8NE71 whole entry): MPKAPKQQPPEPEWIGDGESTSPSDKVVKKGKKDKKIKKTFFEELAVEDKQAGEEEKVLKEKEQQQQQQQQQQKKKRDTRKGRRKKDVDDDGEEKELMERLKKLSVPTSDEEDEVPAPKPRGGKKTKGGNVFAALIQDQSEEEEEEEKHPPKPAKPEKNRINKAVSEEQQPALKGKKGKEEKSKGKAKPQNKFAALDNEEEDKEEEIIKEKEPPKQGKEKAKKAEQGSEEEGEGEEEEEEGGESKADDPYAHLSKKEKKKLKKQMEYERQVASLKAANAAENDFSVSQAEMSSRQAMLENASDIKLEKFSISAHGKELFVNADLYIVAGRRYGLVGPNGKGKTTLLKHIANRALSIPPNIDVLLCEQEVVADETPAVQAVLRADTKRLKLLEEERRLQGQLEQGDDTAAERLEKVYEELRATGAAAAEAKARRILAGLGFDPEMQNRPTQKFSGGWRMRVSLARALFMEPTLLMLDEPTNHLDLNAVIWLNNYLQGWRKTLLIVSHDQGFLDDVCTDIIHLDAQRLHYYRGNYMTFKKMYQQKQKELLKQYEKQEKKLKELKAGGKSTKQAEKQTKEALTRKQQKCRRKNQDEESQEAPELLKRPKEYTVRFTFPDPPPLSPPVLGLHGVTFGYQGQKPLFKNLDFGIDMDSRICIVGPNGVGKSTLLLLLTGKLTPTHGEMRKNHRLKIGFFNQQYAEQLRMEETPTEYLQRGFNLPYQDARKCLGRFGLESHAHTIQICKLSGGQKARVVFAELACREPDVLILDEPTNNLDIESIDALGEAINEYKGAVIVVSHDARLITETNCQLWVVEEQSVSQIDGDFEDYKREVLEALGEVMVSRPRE
Chain of UniProt Q13418 (Q13418 whole entry): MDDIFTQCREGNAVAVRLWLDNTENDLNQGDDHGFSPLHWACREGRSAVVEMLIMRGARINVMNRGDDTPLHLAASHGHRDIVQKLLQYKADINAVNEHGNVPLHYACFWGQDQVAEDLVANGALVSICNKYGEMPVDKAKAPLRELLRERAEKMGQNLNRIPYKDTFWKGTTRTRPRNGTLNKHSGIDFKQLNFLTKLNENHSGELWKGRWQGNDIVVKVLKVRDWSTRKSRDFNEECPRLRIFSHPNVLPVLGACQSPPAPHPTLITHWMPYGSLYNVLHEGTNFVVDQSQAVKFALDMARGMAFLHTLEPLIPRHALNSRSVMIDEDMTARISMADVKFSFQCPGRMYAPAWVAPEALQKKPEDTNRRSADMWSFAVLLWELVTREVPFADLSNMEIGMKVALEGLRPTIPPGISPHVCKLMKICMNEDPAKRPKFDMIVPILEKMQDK
Chain of UniProt Q9NP72 (Q9NP72 whole entry): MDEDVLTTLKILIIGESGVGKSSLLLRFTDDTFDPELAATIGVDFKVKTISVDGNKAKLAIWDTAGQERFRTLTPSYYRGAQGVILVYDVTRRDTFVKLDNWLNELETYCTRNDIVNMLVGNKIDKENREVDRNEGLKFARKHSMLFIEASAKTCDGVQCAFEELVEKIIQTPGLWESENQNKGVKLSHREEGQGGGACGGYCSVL

Target | pEC50 (guanosine triphosphate) | pEC50 (adenosine triphosphate)
CCDC117 (effect direction: stabilized) (UniProt Q8IWD4) | 3.46 | 3.47
AK3 (effect direction: stabilized) (UniProt Q9UIJ7) | 3.46 | 3.22
ILK (effect direction: stabilized) (UniProt Q13418) | 4.17 | 3.37
UniProt Q6XQN6 (effect direction: stabilized) | 3.93 | 4.21
UniProt P61086 (effect direction: stabilized) | 3.76 | 4.05
IMPDH2 (effect direction: stabilized) (UniProt P12268) | 3.62 | 3.26
UniProt Q712K3 (effect direction: stabilized) | 3.86 | 4.18
ABCF1 (effect direction: stabilized) (UniProt Q8NE71) | 3.96 | 4.2
FAR1 (effect direction: stabilized) (UniProt Q8WVX9) | 3.59 | 3.36
UniProt P62333 (effect direction: stabilized) | 3.75 | 4.38
LONP1 (effect direction: stabilized) (UniProt P36776) | 3.91 | 4.03
UniProt P48730 (effect direction: stabilized) | 3.86 | 
FPGT (effect direction: stabilized) (UniProt O14772) | 3.91 | 
ARL3 (effect direction: stabilized) (UniProt P36405) | 4.36 | 
UniProt P61020 (effect direction: stabilized) | 4.67 | 
UQCRC2 (effect direction: stabilized) (UniProt P22695) | 4.3 | 
CPT1A (effect direction: stabilized) (UniProt P50416) | 4.62 | 
RALA (effect direction: stabilized) (UniProt P11233) | 4.33 | 
UniProt P51149 (effect direction: stabilized) | 3.9 | 
NUBPL (effect direction: stabilized) (UniProt Q8TB37) | 3.93 | 
H2AFX (effect direction: stabilized) (UniProt P16104) | 3.49 | 
GPN1 (effect direction: stabilized) (UniProt Q9HCN4) | 4.95 | 
RAB3A (effect direction: stabilized) (UniProt P20336) | 4 | 
SRP54 (effect direction: stabilized) (UniProt P61011) | 3.98 | 
CPSF6 (effect direction: stabilized) (UniProt Q16630) | < 3.3 | 

Target | pEC50 (guanosine triphosphate) | pEC50 (adenosine triphosphate)
SAR1A (effect direction: stabilized) (UniProt Q9NR31) | 3.87 | 
UniProt P60953 (effect direction: stabilized) | 3.59 | 
UniProt Q86Y56 (effect direction: stabilized) | 4.09 | 
UniProt Q13243 (effect direction: stabilized) | 3.6 | 
KRAS (effect direction: stabilized) (UniProt P01116) | 4.32 | 
GSPT2 (effect direction: stabilized) (UniProt Q8IYD1) | 4.27 | 
OPA1 (effect direction: stabilized) (UniProt O60313) | 3.71 | 
SAFB2 (effect direction: destabilized) (UniProt Q14151) | 3.34 | 
UniProt P61221 (effect direction: stabilized) | 4.18 | 
UniProt Q08170 (effect direction: stabilized) | 3.79 | 
UniProt P62834 (effect direction: stabilized) | 4.38 | 
UCK1 (effect direction: stabilized) (UniProt Q9HA47) | < 3.3 | 
H2AFY (effect direction: stabilized) (UniProt O75367) | 3.67 | 
RAB3D (effect direction: stabilized) (UniProt O95716) | 3.85 | 
ALG5 (effect direction: stabilized) (UniProt Q9Y673) | 4.68 | 
UniProt P78527 (effect direction: stabilized) | 3.93 | 
ABCD3 (effect direction: stabilized) (UniProt P28288) | 3.69 | 
RAB18 (effect direction: stabilized) (UniProt Q9NP72) | 3.65 | 
HBS1L (effect direction: stabilized) (UniProt Q9Y450) | 4.21 | 
ATL2 (effect direction: stabilized) (UniProt Q8NHH9) | 3.88 | 
ETNK1 (effect direction: stabilized) (UniProt Q9HBU6) | 4.21 | 
TUBE1 (effect direction: stabilized) (UniProt Q9UJT0) | 4.31 | 
RAB5A (effect direction: stabilized) (UniProt P20339) | 3.97 | 
UniProt O75582 (effect direction: stabilized) | 4.16 | 
